Data reported in ChEMBL document CHEMBL1158249, “Cytotoxic falcarinol oxylipins from Dendropanax arboreus” (J Nat Prod, 1996).
Activity calls are given as the source filed them. The rule behind the calls is not given here.

Columns and labels:
LOX [1] = test: Antitumor activity against human LOX cells xenografted athymic nude mouse at 3.0 mg/kg, ip administered daily for 5 days; assay type: functional, organism-based; set-up: dose 3 mg/kg
Mus musculus [2] = test: Toxicity against human LOX cells xenografted athymic nude mouse assessed as median day of death at 0.17 mg/kg, ip administered daily for 5 days; assay type: organism-based; set-up: dose 0.17 mg/kg, route intraperitoneal; conditions: in vivo, 120 h
LOX [3] = test: Antitumor activity against human LOX cells xenografted athymic nude mouse at 0.59 mg/kg, ip administered daily for 5 days; assay type: functional, organism-based; set-up: dose 0.59 mg/kg
Mus musculus [4] = test: Toxicity against human LOX cells xenografted athymic nude mouse assessed as median day of death at 0.39 mg/kg, ip administered daily for 5 days; assay type: organism-based; set-up: dose 0.39 mg/kg, route intraperitoneal; conditions: in vivo, 120 h
Mus musculus [5] = test: Toxicity against human LOX cells xenografted athymic nude mouse assessed as median day of death at 0.59 mg/kg, ip administered daily for 5 days; assay type: organism-based; set-up: dose 0.59 mg/kg, route intraperitoneal; conditions: in vivo, 120 h
LOX [6] = test: Antitumor activity against human LOX cells xenografted athymic nude mouse at 0.88 mg/kg, ip administered daily for 5 days; assay type: functional, organism-based; set-up: dose 0.88 mg/kg
[7] = Antitumor activity against human LOX cells xenografted athymic nude mouse assessed as increase in life span at 0.59 mg/kg, ip administered daily for 5 days; assay type: functional; conditions: route intraperitoneal
[8] = Antitumor activity against human LOX cells xenografted athymic nude mouse assessed as increase in life span at 2.0 mg/kg, ip administered daily for 5 days; assay type: functional; conditions: route intraperitoneal
Mus musculus [9] = test: Toxicity against human LOX cells xenografted athymic nude mouse assessed as median day of death at 3.0 mg/kg, ip administered daily for 5 days; assay type: organism-based; set-up: dose 3 mg/kg, route intraperitoneal; conditions: in vivo, 120 h
Mus musculus [10] = test: Toxicity against human LOX cells xenografted athymic nude mouse assessed as median day of death at 0.88 mg/kg, ip administered daily for 5 days; assay type: organism-based; set-up: dose 0.88 mg/kg, route intraperitoneal; conditions: in vivo, 120 h
[11] = Antitumor activity against human LOX cells xenografted athymic nude mouse assessed as increase in life span at 0.26 mg/kg, ip administered daily for 5 days; assay type: functional; conditions: route intraperitoneal
LOX [12] = test: Antitumor activity against human LOX cells xenografted athymic nude mouse at 0.17 mg/kg, ip administered daily for 5 days; assay type: functional, organism-based; set-up: dose 0.17 mg/kg
LOX [13] = test: Antitumor activity against human LOX cells xenografted athymic nude mouse at 0.26 mg/kg, ip administered daily for 5 days; assay type: functional, organism-based; set-up: dose 0.26 mg/kg
LOX [14] = test: Antitumor activity against human LOX cells xenografted athymic nude mouse at 2.0 mg/kg, ip administered daily for 5 days; assay type: functional, organism-based; set-up: dose 2 mg/kg
[15] = Antitumor activity against human LOX cells xenografted athymic nude mouse assessed as increase in life span at 3.0 mg/kg, ip administered daily for 5 days; assay type: functional; conditions: route intraperitoneal
Mus musculus [16] = test: Toxicity against human LOX cells xenografted athymic nude mouse assessed as median day of death at 1.33 mg/kg, ip administered daily for 5 days; assay type: organism-based; set-up: dose 1.33 mg/kg, route intraperitoneal; conditions: in vivo, 120 h
[17] = Cytotoxicity against human NCI60 cells; assay type: functional
LOX [18] = test: Antitumor activity against human LOX cells xenografted athymic nude mouse at 1.33 mg/kg, ip administered daily for 5 days; assay type: functional, organism-based; set-up: dose 1.33 mg/kg
Mus musculus [19] = test: Toxicity against human LOX cells xenografted athymic nude mouse assessed as median day of death at 2.0 mg/kg, ip administered daily for 5 days; assay type: organism-based; set-up: dose 2 mg/kg, route intraperitoneal; conditions: in vivo, 120 h
[20] = Antitumor activity against human LOX cells xenografted athymic nude mouse assessed as increase in life span at 1.33 mg/kg, ip administered daily for 5 days; assay type: functional; conditions: route intraperitoneal
Mus musculus [21] = test: Toxicity against human LOX cells xenografted athymic nude mouse assessed as median day of death at 0.26 mg/kg, ip administered daily for 5 days; assay type: organism-based; set-up: dose 0.26 mg/kg, route intraperitoneal; conditions: in vivo, 120 h
[22] = Antitumor activity against human LOX cells xenografted athymic nude mouse assessed as increase in life span at 0.88 mg/kg, ip administered daily for 5 days; assay type: functional; conditions: route intraperitoneal
LOX [23] = test: Antitumor activity against human LOX cells xenografted athymic nude mouse at 0.39 mg/kg, ip administered daily for 5 days; assay type: functional, organism-based; set-up: dose 0.39 mg/kg
LOX [24] = test: Antitumor activity against human LOX cells xenografted athymic nude mouse at 1.76 mg/kg, ip administered daily for 5 days; assay type: functional, organism-based; set-up: dose 1.76 mg/kg
Mus musculus [25] = test: Toxicity against human LOX cells xenografted athymic nude mouse assessed as median day of death at 7.03 mg/kg, ip administered daily for 5 days; assay type: organism-based; set-up: dose 7.03 mg/kg, route intraperitoneal; conditions: in vivo, 120 h
LOX [26] = test: Antitumor activity against human LOX cells xenografted athymic nude mouse at 3.51 mg/kg, ip administered daily for 5 days; assay type: functional, organism-based; set-up: dose 3.51 mg/kg
[27] = Antitumor activity against human LOX cells xenografted athymic nude mouse assessed as increase in life span at 1.76 mg/kg, ip administered daily for 5 days; assay type: functional; conditions: route intraperitoneal
Mus musculus [28] = test: Toxicity against human LOX cells xenografted athymic nude mouse assessed as median day of death at 3.51 mg/kg, ip administered daily for 5 days; assay type: organism-based; set-up: dose 3.51 mg/kg, route intraperitoneal; conditions: in vivo, 120 h
LOX [29] = test: Antitumor activity against human LOX cells xenografted athymic nude mouse at 14.06 mg/kg, ip administered daily for 5 days; assay type: functional, organism-based; set-up: dose 14.06 mg/kg
LOX [30] = test: Antitumor activity against human LOX cells xenografted athymic nude mouse at 56.25 mg/kg, ip administered daily for 5 days; assay type: functional, organism-based; set-up: dose 56.25 mg/kg
LOX [31] = test: Antitumor activity against human LOX cells xenografted athymic nude mouse at 7.03 mg/kg, ip administered daily for 5 days; assay type: functional, organism-based; set-up: dose 7.03 mg/kg
Mus musculus [32] = test: Toxicity against human LOX cells xenografted athymic nude mouse assessed as median day of death at 28.12 mg/kg, ip administered daily for 5 days; assay type: organism-based; set-up: dose 28.12 mg/kg, route intraperitoneal; conditions: in vivo, 120 h
Mus musculus [33] = test: Toxicity against human LOX cells xenografted athymic nude mouse assessed as median day of death at 1.76 mg/kg, ip administered daily for 5 days; assay type: organism-based; set-up: dose 1.76 mg/kg, route intraperitoneal; conditions: in vivo, 120 h
Mus musculus [34] = test: Toxicity against human LOX cells xenografted athymic nude mouse assessed as median day of death at 14.06 mg/kg, ip administered daily for 5 days; assay type: organism-based; set-up: dose 14.06 mg/kg, route intraperitoneal; conditions: in vivo, 120 h
Mus musculus [35] = test: Toxicity against human LOX cells xenografted athymic nude mouse assessed as median day of death at 225 mg/kg, ip administered daily for 5 days; assay type: organism-based; set-up: dose 225 mg/kg, route intraperitoneal; conditions: in vivo, 120 h
Mus musculus [36] = test: Toxicity against human LOX cells xenografted athymic nude mouse assessed as median day of death at 56.25 mg/kg, ip administered daily for 5 days; assay type: organism-based; set-up: dose 56.25 mg/kg, route intraperitoneal; conditions: in vivo, 120 h
LOX [37] = test: Antitumor activity against human LOX cells xenografted athymic nude mouse at 112.5 mg/kg, ip administered daily for 5 days; assay type: functional, organism-based; set-up: dose 112.5 mg/kg
Mus musculus [38] = test: Toxicity against human LOX cells xenografted athymic nude mouse assessed as median day of death at 112.5 mg/kg, ip administered daily for 5 days; assay type: organism-based; set-up: dose 112.5 mg/kg, route intraperitoneal; conditions: in vivo, 120 h
LOX [39] = test: Antitumor activity against human LOX cells xenografted athymic nude mouse at 225 mg/kg, ip administered daily for 5 days; assay type: functional, organism-based; set-up: dose 225 mg/kg
[40] = Antitumor activity against human LOX cells xenografted athymic nude mouse assessed as increase in life span at 0.17 mg/kg, ip administered daily for 5 days; assay type: functional; conditions: route intraperitoneal
LOX [41] = test: Antitumor activity against human LOX cells xenografted athymic nude mouse at 28.12 mg/kg, ip administered daily for 5 days; assay type: functional, organism-based; set-up: dose 28.12 mg/kg
LOX [42] = test: Antitumor activity against human LOX cells xenografted athymic nude mouse at 6.0 mg/kg, ip administered daily for 5 days; assay type: functional, organism-based; set-up: dose 6 mg/kg
Mus musculus [43] = test: Toxicity against human LOX cells xenografted athymic nude mouse assessed as median day of death at 6.0 mg/kg, ip administered daily for 5 days; assay type: organism-based; set-up: dose 6 mg/kg, route intraperitoneal; conditions: in vivo, 120 h

## C=CCCCCC/C=C\CC#CC#C[C@@H](O)C=C
LOX [1]
  Activity: inactive
Mus musculus [2]
  Activity: 15 days
LOX [3]
  Activity: inactive
Mus musculus [4]
  Activity: 15 days
Mus musculus [5]
  Activity: 15 days
LOX [6]
  Activity: inactive
[7]
  Activity: 20%
[8]
  Activity: 27%
Mus musculus [9]
  Activity: 18 days
Mus musculus [10]
  Activity: 15 days
[11]
  Activity: 20%
LOX [12]
  Activity: inactive
LOX [13]
  Activity: inactive
LOX [14]
  Activity: inactive
[15]
  Activity: 47%
Mus musculus [16]
  Activity: 15 days
[17]
  GI50: 400 nM
  LC50: 4800 nM
  TGI: 1300 nM
LOX [18]
  Activity: inactive
Mus musculus [19]
  Activity: 16 days
[20]
  Activity: 20%
Mus musculus [21]
  Activity: 18 days
[22]
  Activity: 13%
LOX [23]
  Activity: inactive

## C=CCCCCC/C=C\[C@H](O)C#CC#C[C@@H](O)CC [DENDROARBOREOL A]
[17]
  GI50: 4600 nM
  LC50: 25000 nM
  TGI: 14000 nM

## C=C[C@H](O)C#CC#C/C=C/C(O)CCCCCCC (stereo not given in full)
[17]
  GI50: 440 nM
  LC50: 4700 nM
  TGI: 1400 nM

## C=C[C@@H](O)C#CC#C[C@@H](O)/C=C\CCCCCCC [FALCARINDIOL]
[17]
  GI50: 660 nM
  TGI: 2200 nM

## C=C[C@H](O)C#CC#CC/C=C\CCCCCCC [FALCARINOL]
LOX [1]
  Activity: inactive
LOX [24]
  Activity: inactive
Mus musculus [25]
  Activity: 5.5 days
Mus musculus [2]
  Activity: 21 days
LOX [26]
  Activity: Active
[27]
  Activity: 5%
LOX [3]
  Activity: inactive
Mus musculus [4]
  Activity: 19 days
Mus musculus [28]
  Activity: 6.5 days
Mus musculus [5]
  Activity: 22.5 days
LOX [6]
  Activity: inactive
LOX [29]
  Activity: Active
[7]
  Activity: 13%
[8]
  Activity: 7%
Mus musculus [9]
  Activity: 20 days
LOX [30]
  Activity: Active
Mus musculus [10]
  Activity: 22 days
LOX [31]
  Activity: Active
LOX [12]
  Activity: inactive
LOX [14]
  Activity: inactive
[15]
  Activity: 13%
Mus musculus [16]
  Activity: 20 days
[17]
  GI50: 220 nM
  LC50: 3800 nM
  TGI: 760 nM
Mus musculus [32]
  Activity: 4 days
Mus musculus [33]
  Activity: 22 days
Mus musculus [34]
  Activity: 4.5 days
LOX [18]
  Activity: inactive
Mus musculus [35]
  Activity: 2 days
Mus musculus [19]
  Activity: 19.5 days
Mus musculus [36]
  Activity: 3 days
LOX [37]
  Activity: Active
Mus musculus [38]
  Activity: 3 days
LOX [39]
  Activity: Active
[40]
  Activity: 5%
[22]
  Activity: 5%
LOX [23]
  Activity: inactive
LOX [41]
  Activity: Active

## C=CCCCCC/C=C\[C@H](O)C#CC#C[C@@H](O)C=C
LOX [1]
  Activity: inactive
LOX [3]
  Activity: inactive
LOX [42]
  Activity: inactive
Mus musculus [4]
  Activity: 14.5 days
Mus musculus [5]
  Activity: 15 days
LOX [6]
  Activity: inactive
Mus musculus [9]
  Activity: 14.5 days
Mus musculus [10]
  Activity: 14 days
Mus musculus [43]
  Activity: 15 days
LOX [13]
  Activity: inactive
LOX [14]
  Activity: inactive
Mus musculus [16]
  Activity: 15.5 days
[17]
  GI50: 2100 nM
  LC50: 10000 nM
  TGI: 3000 nM
LOX [18]
  Activity: inactive
Mus musculus [19]
  Activity: 14 days
[20]
  Activity: 3%
Mus musculus [21]
  Activity: 15 days
LOX [23]
  Activity: inactive

## C=CCCCCCC(O)/C=C/C#CC#C[C@@H](O)C=C (stereo not given in full) [DENDROARBOREOL B]
[17]
  GI50: 500 nM
  LC50: 7600 nM
  TGI: 1900 nM
